Measured values as given in patent US8183001B2 (priority 2006, dated 2012).

Experiments:
Y(T257F) = Y(T257F) (Caenorhabditis elegans, UniProt G5ECD3, I265S/I267V/I270L/N259Q/N305R/T257F/T269V/V261F/V273I); format: cell-based, C. elegans
Experimental: (§1) Electrophysiology: Plasmids containing wild-type and mutagenized GABAA receptor subunits were linearized and transcribed in vitro using T3 RNA polymerase (mMessage mMachine T3 kit, Ambion, Austin Tex.). UNC-49B mRNA was injected into Xenopus laevis oocytes at 0.5 μg/μl either alone, or in a mixture with 0.5 μg/μl UNC-49C. […] The injection volume ranged between 27.6 nl to 50.6 nl. […] Cells were voltage clamped at −60 mV. All recordings were performed at room temperature.
(§2) Important residues in the X segment were tested by substituting UNC-49C residues into the Y chimera. […] These divergent X segment residues were tested by mutating them from UNC-49B to UNC-49C amino acids in the Y chimera background.

Y(T257F/S264A) = Y(T257F/S264A) (Caenorhabditis elegans, UniProt G5ECD3, I265S/I267V/I270L/N259Q/N305R/S264A/T257F/T269V/V261F/V273I); format: cell-based, C. elegans
Sequence of Y(T257F/S264A) (G5ECD3 23-506, stated change not applied): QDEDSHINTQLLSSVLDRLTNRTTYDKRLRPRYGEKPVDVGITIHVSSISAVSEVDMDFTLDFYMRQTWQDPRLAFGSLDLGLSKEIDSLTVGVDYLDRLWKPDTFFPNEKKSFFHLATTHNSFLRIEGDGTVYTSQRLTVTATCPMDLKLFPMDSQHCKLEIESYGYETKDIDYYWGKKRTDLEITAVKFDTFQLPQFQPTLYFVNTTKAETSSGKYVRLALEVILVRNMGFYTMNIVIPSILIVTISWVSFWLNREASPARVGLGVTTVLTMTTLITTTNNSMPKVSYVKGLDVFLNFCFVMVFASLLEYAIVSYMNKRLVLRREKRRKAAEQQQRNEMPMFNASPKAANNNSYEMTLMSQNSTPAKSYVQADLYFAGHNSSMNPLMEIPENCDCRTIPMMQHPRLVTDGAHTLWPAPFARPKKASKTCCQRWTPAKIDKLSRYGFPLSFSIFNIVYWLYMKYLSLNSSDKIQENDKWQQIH
Experimental: as §1, §2

Y(T257F/M258L/S264A) = Y(T257F/M258L/S264A) (Caenorhabditis elegans, UniProt G5ECD3, I265S/I267V/I270L/M258L/N259Q/N305R/S264A/T257F/T269V/V261F/V273I); format: cell-based, C. elegans; conditions: at EC50 GABA
Sequence of Y(T257F/M258L/S264A) (G5ECD3 23-506, stated change not applied): as above
Experimental: as §1, §2

Y(T257F/M258L) = Y(T257F/M258L) (Caenorhabditis elegans, UniProt G5ECD3, I265S/I267V/I270L/M258L/N259Q/N305R/T257F/T269V/V261F/V273I); format: cell-based, C. elegans; conditions: at EC50 GABA
Sequence of Y(T257F/M258L) (G5ECD3 23-506, stated change not applied): as above
Experimental: as §1, §2

Y(S264A) = Y(S264A) (Caenorhabditis elegans, UniProt G5ECD3, I265S/I267V/I270L/N259Q/N305R/S264A/T269V/V261F/V273I); format: cell-based, C. elegans; conditions: at EC50 GABA
Sequence of Y(S264A) (G5ECD3 23-506, stated change not applied): as above
Experimental: as §1, §2

[1] = test system: UNC-49B homomers containing the M1 mutations; test: Desensitization in oocytes; format: cell-based, C. elegans; conditions: oocytes expressing UNC-49B homomers containing the M1 mutations
UNC-49B/C heteromer = UNC-49B/C heteromer (Caenorhabditis elegans, UniProt G5ECD3+G5EE10); format: cell-based; conditions: UNC-49B/C heteromer
Sequence of UNC-49B/C heteromer (G5EE10 entry or part of it): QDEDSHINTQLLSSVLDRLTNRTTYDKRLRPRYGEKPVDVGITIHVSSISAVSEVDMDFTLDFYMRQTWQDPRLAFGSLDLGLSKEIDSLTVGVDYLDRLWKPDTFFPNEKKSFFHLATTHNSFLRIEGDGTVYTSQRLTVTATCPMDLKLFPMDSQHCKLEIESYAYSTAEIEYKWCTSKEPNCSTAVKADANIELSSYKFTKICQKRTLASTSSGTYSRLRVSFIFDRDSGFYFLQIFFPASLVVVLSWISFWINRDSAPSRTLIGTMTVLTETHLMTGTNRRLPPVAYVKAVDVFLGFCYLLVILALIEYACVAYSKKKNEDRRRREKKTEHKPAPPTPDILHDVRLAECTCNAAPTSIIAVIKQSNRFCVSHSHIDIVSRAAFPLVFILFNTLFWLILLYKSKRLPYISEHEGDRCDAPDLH
Sequence of UNC-49B/C heteromer (G5ECD3 entry or part of it): as the sequence (G5ECD3 23-506, stated change not applied) above
Experimental: as §1

M1-M2 chimera = M1-M2 chimera (Caenorhabditis elegans, UniProt G5ECD3+G5EE10); test: Xenopus oocyte two electrode voltage-clamp, GABA-evoked currents; format: cell-based, C. elegans; conditions: 5 μM PS, 1000 μM GABA, versus M1-M2-linker chimera
Sequence of M1-M2 chimera (G5ECD3 23-506, change not shown): as the sequence (G5ECD3 23-506, stated change not applied) above
Sequence of M1-M2 chimera (G5EE10 256-304, change not shown): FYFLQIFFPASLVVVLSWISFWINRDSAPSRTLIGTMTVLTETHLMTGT
Experimental: as §1
(§3) The strategy represents a deletion of UNC-49C material from the carboxy to amino terminal end of the transmembrane portion of the subunit, which is then replaced with UNC-49B sequences.

QF-R [2] = target: QF-R (Caenorhabditis elegans, UniProt G5ECD3, N259Q/N305R/V261F); format: cell-based, C. elegans; conditions: QF-R; at EC50 GABA
Sequence of QF-R (Caenorhabditis elegans, UniProt G5ECD3, N259Q/N305R/V261F) (G5ECD3 23-506, stated change not applied): as the sequence (G5ECD3 23-506, stated change not applied) above
Experimental: as §1
(§4) The conserved residues were tested in the UNC-49C M1 domain in a similar way. […] To test the importance of these conserved residues, they were substituted into an UNC-49B subunit with the linker mutation N305R to create the ‘QF-R’ subunit (FIG. 3c).

QF-R [3] = format: cell-based, C. elegans
Experimental: as §1, §4

M1-M2-linker chimera = M1-M2-linker chimera (Caenorhabditis elegans, UniProt G5ECD3+G5EE10); format: cell-based, C. elegans; conditions: 5 μM PS, 100 μM GABA
Sequence of M1-M2-linker chimera (G5ECD3 23-506, change not shown): as the sequence (G5ECD3 23-506, stated change not applied) above
Sequence of M1-M2-linker chimera (G5EE10 256-315, change not shown): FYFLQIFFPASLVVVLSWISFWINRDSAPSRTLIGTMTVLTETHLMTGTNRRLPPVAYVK
Experimental: as §1, §3

XZ chimera = XZ chimera (Caenorhabditis elegans, UniProt G5ECD3, A281S/E280D/I262F/L277I/M258L/N259Q/N305R/S264A/S282A/T257F/V261F); format: cell-based, C. elegans; conditions: at EC50 GABA
Sequence of XZ chimera (G5ECD3 23-506, stated change not applied): as the sequence (G5ECD3 23-506, stated change not applied) above
Experimental: as §1

X(I265S, Q259N) = X(I265S, Q259N) (Caenorhabditis elegans, UniProt G5ECD3, I262F/I265S/M258L/N305R/S264A/T257F/V261F); format: cell-based, C. elegans; conditions: X(I265S, Q259N); at EC50 GABA
Sequence of X(I265S, Q259N) (G5ECD3 23-506, stated change not applied): as above
Experimental: as §1

UNC-49B-PS7 = format: cell-based, C. elegans
Experimental: as §1

TM chimera = TM chimera (Caenorhabditis elegans, UniProt G5ECD3+G5EE10); format: cell-based, C. elegans; conditions: TM chimera homomer; 5 μM PS
Sequence of TM chimera (G5EE10 256-448, change not shown): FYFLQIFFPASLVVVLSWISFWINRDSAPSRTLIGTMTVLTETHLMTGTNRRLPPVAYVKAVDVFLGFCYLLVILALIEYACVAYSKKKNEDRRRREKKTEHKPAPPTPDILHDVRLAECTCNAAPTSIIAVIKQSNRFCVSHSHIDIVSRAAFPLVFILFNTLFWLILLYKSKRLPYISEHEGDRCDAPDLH
Sequence of TM chimera (G5ECD3 23-254, change not shown): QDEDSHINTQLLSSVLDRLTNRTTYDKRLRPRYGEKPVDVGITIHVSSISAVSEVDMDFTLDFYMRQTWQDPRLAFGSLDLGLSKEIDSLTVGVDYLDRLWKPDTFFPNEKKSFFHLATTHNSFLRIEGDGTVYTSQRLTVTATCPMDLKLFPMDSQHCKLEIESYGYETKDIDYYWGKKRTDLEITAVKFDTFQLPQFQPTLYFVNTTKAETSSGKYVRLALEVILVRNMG
Experimental: as §1

X chimera = X chimera (Caenorhabditis elegans, UniProt G5ECD3, I262F/M258L/N259Q/N305R/S264A/T257F/V261F); format: cell-based, C. elegans; conditions: at EC50 GABA
Sequence of X chimera (G5ECD3 23-506, stated change not applied): as the sequence (G5ECD3 23-506, stated change not applied) above
Experimental: as §1

Z chimera = Z chimera (Caenorhabditis elegans, UniProt G5ECD3, A281S/E280D/L277I/N259Q/N305R/S282A/V261F); format: cell-based, C. elegans; conditions: at EC50 GABA
Sequence of Z chimera (G5ECD3 23-506, stated change not applied): as above
Experimental: as §1

[4] = target: double chimera (M1 + linker) (Caenorhabditis elegans, UniProt G5ECD3+G5EE10); format: cell-based, C. elegans; conditions: at EC50 GABA
Sequence of double chimera (M1 + linker) (G5ECD3 23-506, change not shown): as the sequence (G5ECD3 23-506, stated change not applied) above
Sequence of double chimera (M1 + linker) (G5EE10 entry or part of it, change not shown): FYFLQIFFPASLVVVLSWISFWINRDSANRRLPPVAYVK
Experimental: as §1

M1-R = M1-R (Caenorhabditis elegans, UniProt G5ECD3+G5EE10, N305R, form not given); format: cell-based, C. elegans; conditions: at EC50 GABA
Sequence of M1-R (G5ECD3 entry or part of it, stated change not applied): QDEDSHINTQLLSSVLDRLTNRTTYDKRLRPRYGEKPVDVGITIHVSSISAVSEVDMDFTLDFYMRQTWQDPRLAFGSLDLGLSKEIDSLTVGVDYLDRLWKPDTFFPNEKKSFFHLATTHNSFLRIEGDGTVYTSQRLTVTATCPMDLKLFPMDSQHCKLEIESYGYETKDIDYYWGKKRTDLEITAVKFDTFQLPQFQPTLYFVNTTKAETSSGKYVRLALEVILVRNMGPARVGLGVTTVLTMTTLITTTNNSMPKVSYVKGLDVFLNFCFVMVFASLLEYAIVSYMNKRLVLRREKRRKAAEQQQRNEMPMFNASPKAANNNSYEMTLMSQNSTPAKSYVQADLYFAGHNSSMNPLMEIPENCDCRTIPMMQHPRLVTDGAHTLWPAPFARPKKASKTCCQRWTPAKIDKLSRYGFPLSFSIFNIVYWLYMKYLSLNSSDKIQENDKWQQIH
Sequence of M1-R (G5EE10 256-283, stated change not applied): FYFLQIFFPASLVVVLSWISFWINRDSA
Experimental: as §1

X(V273I) = X(V273I) (Caenorhabditis elegans, UniProt G5ECD3, I262F/M258L/N259Q/N305R/S264A/T257F/V261F/V273I); format: cell-based, C. elegans; conditions: at EC50 GABA
Sequence of X(V273I) (G5ECD3 23-506, stated change not applied): as the sequence (G5ECD3 23-506, stated change not applied) above
Experimental: as §1

X(I265S) = X(I265S) (Caenorhabditis elegans, UniProt G5ECD3, I262F/I265S/M258L/N259Q/N305R/S264A/T257F/V261F); format: cell-based, C. elegans; conditions: at EC50 GABA
Sequence of X(I265S) (G5ECD3 23-506, stated change not applied): as above
Experimental: as §1

Sequence of Y(T257F) (G5ECD3 23-506, stated change not applied): as above

pregnenolone sulfate [PS]
reduction of the holding current by PS alone, relative to EC50 GABA-evoked current (Y(T257F); T257F point mutant, 100 μM PS): 6-20%
PS Slope coefficient (Y(T257F); Y(T257F), at EC50 GABA): 1.3 ± 0.06
reduction of the holding current by PS alone, relative to EC50 GABA-evoked current (Y(T257F/S264A); T257F/S264A point mutant, 100 μM PS): 6-20%
PS Slope coefficient (Y(T257F/S264A); Y(T257F/S264A), at EC50 GABA): 0.9 ± 0.08
PS Slope coefficient (Y(T257F/M258L/S264A)): 1.44 ± 0.1
PS Slope coefficient (Y(T257F/M258L)): 2.3 ± 0.2
PS Slope coefficient (Y(S264A)): 5.3 ± 1.8
effect of PS on desensitization [1]: accelerated desensitization
inhibition of GABA-evoked current (UNC-49B/C heteromer; 100 μM PS, EC50 GABA): 95%
PS Slope coefficient (UNC-49B/C heteromer; at EC50 GABA): 0.9 ± 0.1 (n = 4)
PS sensitivity (M1-M2 chimera): significantly less PS sensitive
PS Slope coefficient (QF-R [2]): 1.5 ± 0.5 (n = 6)
fold more sensitive to PS than N305R (QF-R [3]; QF-R versus N305R): 2.1 fold
fold less sensitive to PS than the double chimera (QF-R [3]; QF-R versus double chimera): 6.7 fold
PS sensitivity (M1-M2-linker chimera): equally sensitive to 5 μM PS as the TM chimera
PS Slope coefficient (XZ chimera): 1.1 ± .06
PS Slope coefficient (X(I265S, Q259N)): 0.9 ± 0.0
fold increase in PS sensitivity (UNC-49B-PS7; UNC-49B-PS7 versus UNC-49B subunit): 58 fold
fold difference in PS sensitivity (UNC-49B-PS7; UNC-49B-PS7 versus UNC-49B/C heteromer): 1.4 fold
PS inhibition (TM chimera): strongly inhibited
PS Slope coefficient (X chimera): 1.0 ± 0.03
PS Slope coefficient (Z chimera): 1.05 ± 0.03
PS Slope coefficient [4]: 1.4 ± 0.1 (n = 4)
PS Slope coefficient (M1-R): 1.2 ± 0.1 (n = 8)
PS Slope coefficient (X(V273I)): 1.0 ± 0.02
PS Slope coefficient (X(I265S)): 1.1 ± 0.1
